In patent publication US10766855B2, “Hydroxamate triterpenoid derivatives” (VIVACELL BIOTECHNOLOGY ESPANA S.L., priority 2016, dated 2020):
Read-outs that look alike come from different tables or passages of the source. Blank lines part the entries; values can stand above or below the compound they belong to.

Tests used:
Format in all cases: cell-based
[1] = system: STAT3; assay: STAT3 inhibition in HeLa-STAT3-Luc cells stimulated with IFN-γ; conditions: for IC50: IFN-γ 25 IU/ml, 6 h
Experimental: (§1) The HeLa-STAT3-luc cells stably transfected with the plasmid 4×M67 pTATA TK-Luc. Cells (20×10^3 cells/ml) were seeded in 96-well plates, treated with increasing concentrations of the compounds II to XIV, and of comparative compound CDDO-Me, for 15 min and then stimulated with IFN-γ 25 IU/ml. After 6 h the luciferase activity in the cell lysates was measured as indicated above. […] The HaCaT-ARE-Luc cell line contains the Nqo1 Antioxidant Response Element (ARE)-Luc reporter plasmid. ARE is activated by all members of the CNC family of factors (Nrf1, Nrf2, Nrf3 and p45 NF-E2). The cells were cultivated in 96-well plates at the concentration of 25×10^3 cells/well in a CO2 incubator at 37° C. For induction of Nrf2 activation the cells were treated with increasing concentrations of the compounds II to XV, and of comparative compound CDDO-Me, for 6 h. As a positive control the cells were treated with 0.02 mM of the antioxidant Tert-butyl-hydroquinone (TBHQ). Luciferase activity in the cell lysates was measured as indicated above and the EC50 calculated (Table III). The CHO-TGR5-CRE-Luc cells stably transfected with the pTGR5 and CRE-Luc. The CRE-responsive luciferase construct encodes the firefly luciferase reporter gene under the control of a minimal (m)CMV promoter and tandem repeats of the CRE transcriptional response element (TRE) and is useful to monitor cAMP signaling pathways activated by TGR5 agonists. Cells (1×10^4/well) were seeded in 96-well plates, treated with increasing concentrations of the compounds II to XV and CDDO-Me, for 6 h. As a positive control the cells were treated with 10 μM of LCA (lithocholic acid). Luciferase activity in the cell lysates was measured as indicated above and the EC50 calculated (Table III).

[2] = system: NF-κB; assay: NF-κB inhibition in NIH-3T3-KBF-Luc cells stimulated with TNFα; conditions: for IC50: TNFα 30 ng/ml, 6 h
Experimental: To further study the target selectivity of the compounds described in the present invention the effect of the natural triterpenoids (OA; BA, UA, and MA), compounds II to XV of Formula (I) disclosed in present invention, and of comparative compound CDDO-Me on NF-κB inhibition, STAT-3 inhibition, Nrf2 activation and TGR5 activation was analyzed. For this study cell lines NIH-3T3-KBF-Luc, HeLa-STAT3-Luc, HaCaT-ARE-Luc and CHO-TGR5-CRE-luc were used respectively. The NIH3T3-KBF-Luc cell line stably transfected with the plasmid KBF-Luc plasmid, which contains three copies of NF-κB binding site (from major histocompatibility complex promoter), fused to a minimal simian virus 40 promoter driving the luciferase gene. Cells (1×10^4/well) were seeded in 96-well plates, treated with increasing concentrations of the compounds II to XV for 15 min and then stimulated with 30 ng/ml TNFα. After 6 h the luciferase activity in the cell lysates was measured as indicated above.

[3] = system: Nrf2; assay: Nrf2 activation/inhibition in HaCaT-ARE-Luc cells
[4] = system: HIF-1α; assay: HIF-1α transactivation assay in NIH-3T3-EPO-Luc fibroblast cells; conditions: for EC50 / Efficacy HIF-1α (IRA coefficient): 6 h stimulation; for EC50: read-out: Potency EC50 HIF-1α; for Efficacy HIF-1α (IRA coefficient): relative to 150 μM DFX
Experimental: To investigate the biological activities of the different compounds, HIF-1α transactivation assays were performed either in NIH-3T3-EPO-Luc cells (Table II) or in HaCaT-EPO-luc cells (FIG. 2). The NIH3T3-EPO-luc and HaCaT-EPO-luc cells have been stably transfected with the plasmid Epo-Luc plasmid. The EPO-Hypoxia Response Element (HRE)-luciferase reporter plasmid contains three copies of the HRE consensus sequence from the promoter of the erythropoietin gene fused to the luciferase gene. NIH3T3-EPO-luc cells were maintained at 37° C. in a humidified atmosphere containing 5% CO2 in DMEM supplemented with 10% fetal calf serum (FBS), and 1% (v/v) penicillin/streptomycin. DFX was purchased from Sigma-Aldrich (USA). Cells (1×10^4/well in 96 well plates) were seeded the day before the assay. […] After six hours of stimulation the cells were lysed in 25 mM Tris-phosphate pH 7.8, 8 mM MgCl2, 1 mM DTT, 1% Triton X-100, and 7% glycerol during 15 min at RT in a horizontal shaker. Luciferase activity is measured using a microplate luminometer (Berthold) following the instructions of the luciferase assay kit (Promega, Madison, Wis., USA).

[5] = system: TGR5; assay: TGR5 activation in CHO-TGR5-CRE-Luc cells; conditions: for EC50: 6 h
Experimental: The CHO-TGR5-CRE-Luc cells stably transfected with the pTGR5 and CRE-Luc. […] As a positive control the cells were treated with 10 μM of LCA (lithocholic acid). Luciferase activity in the cell lysates was measured as indicated above and the EC50 calculated (Table III).

[6] = system: Nrf2; assay: Nrf2 activation/inhibition in HaCaT-ARE-Luc cells; conditions: for EC50: 6 h
Experimental: as §1

Structure (SMILES): C=C(C)[C@@H]1CC[C@]2(C(=O)O)CC[C@]3(C)[C@H](CC[C@@H]4[C@@]5(C)CC[C@H](O)C(C)(C)[C@@H]5CC[C@]43C)[C@@H]12 [Betulinic acid, reference compound]
- IC50 [1]: > 50 µM
- IC50 [2]: > 50 µM
- IC50 [3]: > 50 µM
- EC50 ([4]; Fibroblast): > 50 µM
- EC50 [5]: 22.2 µM
- EC50 [6]: 9.02 µM

Structure (SMILES): COC(=O)[C@]12CCC(C)(C)C[C@H]1[C@H]1C(=O)C=C3[C@@]4(C)C=C(C#N)C(=O)C(C)(C)[C@@H]4CC[C@@]3(C)[C@]1(C)CC2 [CDDO—Me, 2-Cyano-3,12-dioxo-oleana-1,9(11)-dien-28-oic acid methyl ester, reference compound]
- inhibition of the STAT3 pathway induced by IFNγ (in words) [1]: clearly inhibited
- IC50 [1]: 2.38 µM
- inhibition of the NF-κB pathway induced by TNFα (in words) [2]: clearly inhibited
- IC50 [2]: 1.2 µM
- IC50 [3]: 0.06 µM
- activation of the EPO promoter as a surrogate marker of HIF-1α pathway activation (in words) [4]: does not result in activation of the HIF pathway
- EC50 ([4]; Fibroblast): > 50 µM
- EC50 [5]: > 50 µM
- activation of the Nrf2 pathway (in words) [6]: activated the Nrf2 pathway
- EC50 [6]: 40.9 µM

Structure (SMILES): CC1(C)CC[C@]2(C(=O)NO)CC[C@]3(C)C(=CC[C@@H]4[C@@]5(C)CC[C@H](O)C(C)(C)[C@@H]5CC[C@]43C)[C@@H]2C1 [Compound II, (3β) 3-Hydroxy-N-hydroxy-olean-12-en-28-amide]
- IC50 [1]: > 50 µM
- IC50 [2]: > 50 µM
- IC50 [3]: > 50 µM
- Efficacy HIF-1α (IRA coefficient) [4]: 0.39
- EC50 ([4]; Fibroblast): 16.4 µM
- EC50 [5]: > 50 µM
- EC50 [6]: > 50 µM

Structure (SMILES): C=C(C)[C@@H]1CC[C@]2(C(=O)NO)CC[C@]3(C)[C@H](CC[C@@H]4[C@@]5(C)Cc6cn[nH]c6C(C)(C)[C@@H]5CC[C@]43C)[C@@H]12 [Compound IX, 1′H-Lup-20(29)-eno[3,2-c]pyrazol-N-hydroxy-28-amide]
- Efficacy HIF-1α (IRA coefficient) [4]: 0.34
- EC50 ([4]; Fibroblast): 2.41 µM

Structure (SMILES): C=C(C)[C@@H]1CC[C@]2(C(=O)NO)CC[C@]3(C)[C@H](CC[C@@H]4[C@@]5(C)Cc6cnoc6C(C)(C)[C@@H]5CC[C@]43C)[C@@H]12 [Compound VIII, Lup-2-eno[2,3-d]isoxazol-N-hydroxy-28-amide]
- IC50 [1]: > 50 µM
- IC50 [2]: > 50 µM
- IC50 [3]: > 50 µM
- Efficacy HIF-1α (IRA coefficient) [4]: 0.55
- EC50 ([4]; Fibroblast): 2.58 µM
- agonistic TGR5 activity (in words) [5]: showed agonistic TGR5 activity
- EC50 [5]: 9.62 µM
- EC50 [6]: > 50 µM

Structure (SMILES): C=C(C)[C@@H]1CC[C@]2(C(=O)NO)CC[C@]3(C)[C@H](CC[C@@H]4[C@@]5(C)CC=CC(C)(C)[C@@H]5CC[C@]43C)[C@@H]12 [Compound X, Lupa-2,20(29)-dien-N-hydroxy-28-amide]
- IC50 [1]: > 50 µM
- IC50 [2]: > 50 µM
- IC50 [3]: > 50 µM
- Efficacy HIF-1α (IRA coefficient) [4]: 0.48
- EC50 ([4]; Fibroblast): 3.24 µM
- EC50 [5]: > 50 µM
- EC50 [6]: > 50 µM

Structure (SMILES): C=C(C)[C@@H]1CC[C@]2(C(=O)NO)CC[C@]3(C)[C@H](CC[C@@H]4[C@@]5(C)CC/C(=N\O)C(C)(C)[C@@H]5CC[C@]43C)[C@@H]12 [Compound XI, 3-Hydroxyimino-N-hydroxy-lup-20(29)-en-28-amide]
- IC50 [1]: > 50 µM
- IC50 [2]: > 50 µM
- IC50 [3]: > 50 µM
- Efficacy HIF-1α (IRA coefficient) [4]: 0.31
- EC50 ([4]; Fibroblast): 2.58 µM
- agonistic TGR5 activity (in words) [5]: showed agonistic TGR5 activity
- EC50 [5]: 17.5 µM
- EC50 [6]: > 50 µM

Structure (SMILES): CC1(C)C2CC[C@]3(C)[C@H](C(=O)C=C4[C@H]5C[C@@](C)(C(=O)NO)CC[C@]5(C)CC[C@]43C)[C@@]2(C)CC[C@@H]1O (some centres unmarked) [Compound XX, reference compound]
- activation of the EPO promoter as a surrogate marker of HIF-1α pathway activation (in words) [4]: do not activate the HIF-1α pathway
- EC50 ([4]; Fibroblast): > 50 µM

Structure (SMILES): CC1(C)[C@@H](O)CC[C@]2(C)[C@H]3C(=O)C=C4[C@@H]5C[C@@](C)(C(=O)O)CC[C@]5(C)CC[C@@]4(C)[C@]3(C)CC[C@@H]12 [Glycyrrethinic acid, reference compound]
- activation of the EPO promoter as a surrogate marker of HIF-1α pathway activation (in words) [4]: do not activate the HIF-1α pathway
- EC50 ([4]; Fibroblast): > 50 µM

More lines, main results first:

- IC50 [1]: > 50 µM
- IC50 [2]: > 50 µM
- EC50 [5]: > 50 µM
Structure (SMILES): CC1(C)CC[C@]2(C(=O)NO)CC[C@]3(C)C(=CC[C@@H]4[C@@]5(C)CC/C(=N\O)C(C)(C)[C@@H]5CC[C@]43C)[C@@H]2C1 [Compound III, 3-Hydroxyimino-N-hydroxy-olean-12-en-28-amide]
- IC50 [3]: > 50 µM
- Efficacy HIF-1α (IRA coefficient) [4]: 0.43
- EC50 ([4]; Fibroblast): 3.83 µM
- EC50 [6]: 23.9 µM

- IC50 [1]: > 50 µM
- IC50 [2]: > 50 µM
- EC50 [5]: > 50 µM
Structure (SMILES): CC1(C)CC[C@]2(C(=O)NO)CC[C@]3(C)C(=CC(=O)[C@@H]4[C@@]5(C)CC[C@H](O)C(C)(C)[C@@H]5CC[C@]43C)[C@@H]2C1 [Compound IV, (3β) 3-Hydroxy-11-oxo-olean-12-en-N-hydroxy-28-amide]
- IC50 [3]: > 50 µM
- Efficacy HIF-1α (IRA coefficient) [4]: 0.15
- EC50 ([4]; Fibroblast): 11.4 µM
- EC50 [6]: 10 µM

- IC50 [1]: > 50 µM
- IC50 [2]: > 50 µM
- EC50 [5]: > 50 µM
Structure (SMILES): CC(=O)O[C@H]1CC[C@]2(C)[C@H]3C(=O)C=C4[C@@H]5CC(C)(C)CC[C@]5(C(=O)NO)CC[C@@]4(C)[C@]3(C)CC[C@H]2C1(C)C [Compound V, (3β) 3-Acetyloxy-11-oxo-olean-12-en-N-hydroxy-28-amide]
- IC50 [3]: > 50 µM
- Efficacy HIF-1α (IRA coefficient) [4]: 0.16
- EC50 ([4]; Fibroblast): 6.71 µM
- EC50 [6]: > 50 µM

- IC50 [1]: > 50 µM
- IC50 [2]: > 50 µM
- EC50 [5]: > 50 µM
Structure (SMILES): CC1(C)CC[C@]2(C(=O)NO)CC[C@]3(C)C(=CC[C@@H]4[C@@]5(C)CC=CC(C)(C)[C@@H]5CC[C@]43C)[C@@H]2C1 [Compound VI, Oleana-2,12-dien-N-hydroxy-28-amide]
- IC50 [3]: > 50 µM
- EC50 [4]: 5 µM
- Efficacy HIF-1α (IRA coefficient) [4]: 0.16
- EC50 [6]: > 50 µM

- IC50 [1]: > 50 µM
- IC50 [2]: > 50 µM
- EC50 [5]: 5.91 µM
Structure (SMILES): C[C@H]1[C@H](C)CC[C@]2(C(=O)NO)CC[C@]3(C)C(=CC[C@@H]4[C@@]5(C)CC[C@H](O)C(C)(C)C5CC[C@]43C)[C@H]12 (stereo partly drawn) [Compound XII, (3β) 3-Hydroxy-N-hydroxy-urs-12-en-28-amide]
- IC50 [3]: > 50 µM
- Efficacy HIF-1α (IRA coefficient) [4]: 0.17
- EC50 ([4]; Fibroblast): 7.69 µM
- agonistic TGR5 activity (in words) [5]: showed agonistic TGR5 activity
- EC50 [6]: > 50 µM

- IC50 [1]: > 50 µM
- IC50 [2]: > 50 µM
- EC50 [5]: > 50 µM
Structure (SMILES): C[C@H]1[C@H](C)CC[C@]2(C(=O)NO)CC[C@]3(C)C(=CC[C@@H]4[C@@]5(C)CC/C(=N/O)C(C)(C)C5CC[C@]43C)[C@H]12 (some centres unmarked) [Compound XIII, 3 Hydroxyimino-N-hydroxy-urs-12-en-28-amide]
- IC50 [3]: > 50 µM
- Efficacy HIF-1α (IRA coefficient) [4]: 0.10
- EC50 ([4]; Fibroblast): 8.93 µM
- EC50 [6]: > 50 µM

- IC50 [1]: > 50 µM
- IC50 [2]: > 50 µM
Structure (SMILES): C[C@H]1[C@H](C)CC[C@]2(C(=O)O)CC[C@]3(C)C(=CC[C@@H]4[C@@]5(C)CC[C@H](O)C(C)(C)[C@@H]5CC[C@]43C)[C@H]12 [Ursolic acid, reference compound]
- IC50 [3]: > 50 µM
- activation of the EPO promoter as a surrogate marker of HIF-1α pathway activation (in words) [4]: None of the natural triterpenoids
- EC50 ([4]; Fibroblast): > 50 µM
- EC50 [6]: 38.4 µM
